ChEMBL document CHEMBL5352440, “Promising antimalarials targeting apicoplast DNA polymerase from Plasmodium falciparum” (Eur J Med Chem, 2022)
pEC50, pIC50: −log10 of the molar value. Calls of active or inactive are those of the source. No cut-off for these calls is given here.

Key:
[1] = biological target: DNA polymerase I (Escherichia coli) (UniProt P00582); experiment: Inhibition of Escherichia coli DNA polymerase I
Plasmodium falciparum [2] = experiment: Inhibition of plasmodium falciparum apicoplast DNA polymerase exonuclease activity using blunt-ended double stranded oligonucleotide with 2-aminopurine at position 1 on 3' end as substrate assessed as reduction in exonuclease proofreading activity at 3'-5' direction at 100 uM relative to control
Plasmodium falciparum [3] = experiment: Inhibition of plasmodium falciparum apicoplast DNA polymerase exonuclease activity using blunt-ended double stranded oligonucleotide with 2-aminopurine at position 1 on 3' end as substrate assessed as exonuclease specific activity at 100 uM (reference value: 2.2 +/- 0.09%)
[4] = biological target: T1, DNA-directed DNA polymerase (Enterobacteria phage T4) (UniProt P04415); experiment: Inhibition of Enterobacteria T4 phage DNA polymerase
T1 sequence (whole entry): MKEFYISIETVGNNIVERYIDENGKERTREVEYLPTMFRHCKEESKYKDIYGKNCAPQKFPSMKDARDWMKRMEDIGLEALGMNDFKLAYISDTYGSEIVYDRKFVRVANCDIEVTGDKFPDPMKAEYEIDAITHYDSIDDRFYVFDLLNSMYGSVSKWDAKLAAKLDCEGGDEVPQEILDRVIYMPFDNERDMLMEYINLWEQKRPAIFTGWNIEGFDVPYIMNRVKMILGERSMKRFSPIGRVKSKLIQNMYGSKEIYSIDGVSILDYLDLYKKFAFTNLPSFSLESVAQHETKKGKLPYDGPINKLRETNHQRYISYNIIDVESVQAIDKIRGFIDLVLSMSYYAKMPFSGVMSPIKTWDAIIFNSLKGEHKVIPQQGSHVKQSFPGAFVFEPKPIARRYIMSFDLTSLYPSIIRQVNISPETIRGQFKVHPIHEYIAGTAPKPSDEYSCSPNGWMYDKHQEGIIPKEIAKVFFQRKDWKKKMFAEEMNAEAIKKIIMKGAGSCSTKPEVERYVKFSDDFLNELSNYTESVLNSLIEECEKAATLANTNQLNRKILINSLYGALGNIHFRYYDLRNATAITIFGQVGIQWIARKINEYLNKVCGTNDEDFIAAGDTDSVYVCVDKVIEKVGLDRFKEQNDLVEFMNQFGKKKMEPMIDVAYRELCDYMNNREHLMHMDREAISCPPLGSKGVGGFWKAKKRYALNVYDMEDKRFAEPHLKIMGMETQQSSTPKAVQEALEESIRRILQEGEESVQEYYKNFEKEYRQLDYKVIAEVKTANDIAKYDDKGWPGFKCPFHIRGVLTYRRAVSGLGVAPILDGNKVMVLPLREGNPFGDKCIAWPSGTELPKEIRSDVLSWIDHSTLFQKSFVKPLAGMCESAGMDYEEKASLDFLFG

Plasmodium falciparum [5] = experiment: Antiparasitic activity against Plasmodium falciparum NF54 with attB plasmid infected in red blood cells assessed as reduction in parasitemia incubated for 72 hrs; format: functional, organism-based, Red blood cell; settings: NF54, Erythrocyte
Plasmodium falciparum [6] = experiment: Non-competitive inhibition of Plasmodium falciparum apicoplast DNA polymerase assessed as inhibition constant for higher affinity site in presence of various concentrations of dNTPs by molecular beacon assay
Plasmodium falciparum [7] = experiment: Antiparasitic activity against Plasmodium falciparum NF54 with attB plasmid infected in red blood cells assessed as reduction in parasitemia incubated for 96 hrs in presence of isopentenyl pyrophosphate by flow cytometry analysis; format: functional, organism-based; settings: Red blood cell
Plasmodium falciparum [8] = experiment: Non-competitive inhibition of Plasmodium falciparum apicoplast DNA polymerase assessed as inhibition constant for lower affinity site in presence of various concentrations of dNTPs by molecular beacon assay
Plasmodium falciparum [9] = experiment: Competitive inhibition of Plasmodium falciparum apicoplast DNA polymerase assessed as inhibition constant for lower affinity site in presence of various concentrations of dNTPs by molecular beacon assay
[10] = Inhibition of plasmodium falciparum apicoplast DNA polymerase exonuclease activity using blunt-ended double stranded oligonucleotide with 2-aminopurine at position 1 on 3' end as substrate assessed as reduction in exonuclease proofreading activity at 3'-5' direction
Plasmodium falciparum [11] = experiment: Non-competitive inhibition of exonuclease deficient Plasmodium falciparum apicoplast DNA polymerase harboring wild type W512 residue assessed as inhibition constant for lower affinity site in presence of dNTPs
Plasmodium falciparum [12] = experiment: Non-competitive inhibition of exonuclease deficient Plasmodium falciparum apicoplast DNA polymerase harboring wild type W512 residue assessed as inhibition constant for higher affinity site in presence of dNTPs
Plasmodium falciparum [13] = experiment: Non-competitive inhibition of exonuclease deficient Plasmodium falciparum apicoplast DNA polymerase W512A mutant assessed as inhibition constant for lower affinity site in presence of dNTPs
Plasmodium falciparum [14] = experiment: Non-competitive inhibition of exonuclease deficient Plasmodium falciparum apicoplast DNA polymerase W512A mutant assessed as inhibition constant for higher affinity site in presence of dNTPs

Sequence of DNA polymerase I (Escherichia coli) (P00582 whole entry): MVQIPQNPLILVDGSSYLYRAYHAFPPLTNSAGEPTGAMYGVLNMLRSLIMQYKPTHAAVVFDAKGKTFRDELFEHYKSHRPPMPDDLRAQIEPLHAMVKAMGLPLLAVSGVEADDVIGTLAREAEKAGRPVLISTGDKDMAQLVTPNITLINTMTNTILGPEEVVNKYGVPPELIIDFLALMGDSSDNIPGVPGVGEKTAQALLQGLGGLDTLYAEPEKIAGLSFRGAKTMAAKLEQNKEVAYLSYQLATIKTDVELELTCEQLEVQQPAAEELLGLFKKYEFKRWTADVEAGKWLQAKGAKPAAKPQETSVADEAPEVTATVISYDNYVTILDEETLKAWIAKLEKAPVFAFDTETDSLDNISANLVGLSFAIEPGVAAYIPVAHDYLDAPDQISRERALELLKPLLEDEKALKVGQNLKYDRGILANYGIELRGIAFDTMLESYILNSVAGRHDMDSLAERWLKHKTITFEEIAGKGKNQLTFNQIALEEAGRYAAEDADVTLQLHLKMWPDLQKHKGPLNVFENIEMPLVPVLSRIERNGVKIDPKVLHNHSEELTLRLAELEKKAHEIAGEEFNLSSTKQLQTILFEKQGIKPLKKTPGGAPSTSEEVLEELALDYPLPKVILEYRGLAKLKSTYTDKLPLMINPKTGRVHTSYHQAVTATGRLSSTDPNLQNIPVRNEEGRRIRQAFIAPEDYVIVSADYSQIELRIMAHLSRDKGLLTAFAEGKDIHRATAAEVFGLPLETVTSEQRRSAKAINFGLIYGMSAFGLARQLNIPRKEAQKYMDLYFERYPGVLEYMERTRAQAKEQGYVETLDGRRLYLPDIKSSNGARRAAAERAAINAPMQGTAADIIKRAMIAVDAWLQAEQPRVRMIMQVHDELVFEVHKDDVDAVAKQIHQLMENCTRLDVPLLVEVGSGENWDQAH

SMILES	inhibition [1]	inhibition (Plasmodium falciparum [2])	Activity (Plasmodium falciparum [3])	inhibition [4]	pEC50 (Plasmodium falciparum [5])	KiH (Plasmodium falciparum [6])	KiL (Plasmodium falciparum [8])	KiH (Plasmodium falciparum [9])	pIC50 [10]	Activity (Plasmodium falciparum [7])	KiL (Plasmodium falciparum [11])	KiH (Plasmodium falciparum [12])	KiL (Plasmodium falciparum [13])	KiH (Plasmodium falciparum [14])
Cc1cccc(-n2nc3c(c2NC(=O)Nc2ccc(C(C)(C)C)cc2)CSC3)c1	inactive	< 50%	1.2 U	inactive	5.51									
O=C(Nc1c2c(nn1-c1cccc(Cl)c1)COC2)c1ccc2ccccc2c1	inactive		1.8 U	inactive	5.10									
CC(C)(C)c1ccc(C(=O)Nc2c3c(nn2-c2cccc(Cl)c2)CSC3)cc1	inactive	< 50%	1.6 U	inactive	5.40	5.98 µM	15.9 µM			Active				
CC(C)(C)C(=O)Nc1c2c(nn1-c1cccc(Cl)c1)COC2	inactive		2.6 U	inactive	< 4.70									
Cc1cccc(-n2nc3c(c2NC(=O)c2ccc(C(C)(C)C)cc2)CSC3)c1	inactive	< 50%	2.3 U	inactive	5.23									
CC(C)(C)c1ccc(NC(=O)Nc2c3c(nn2-c2ccncc2)COC3)cc1	inactive		1.3 U	inactive	5.48									
CC(=O)Nc1c2c(nn1-c1cccc(Cl)c1)COC2	inactive		2.2 U	inactive	< 4.70									
CC(C)(C)c1ccc(NC(=O)Nc2c3c(nn2-c2ccc(Cl)cc2)CSC3)cc1	inactive	< 50%	2.1 U	inactive	6.00	1.97 µM	15 µM							
Cc1cccc(-n2nc3c(c2NS(=O)(=O)c2ccc(C(C)(C)C)cc2)CSC3)c1	inactive		2.3 U	inactive	< 4.70									
CC(C)(C)c1ccc(S(=O)(=O)Nc2c3c(nn2-c2ccc(C(F)(F)F)cc2)CSC3)cc1	inactive	> 90%	0.01 U	inactive	< 4.70				4.80					
CC(C)(C)c1ccc(S(=O)(=O)Nc2c3c(nn2-c2cccc(C(F)(F)F)c2)CSC3)cc1	inactive	> 90%	0.06 U	inactive	< 4.70									
CC(C)(C)c1ccc(C(=O)Nc2c3c(nn2-c2ccc(Cl)cc2)CSC3)cc1	inactive	< 50%	2.4 U	inactive	5.38									
CC(C)(C)c1ccc(NC(=O)Nc2c3c(nn2-c2ccc(C(F)(F)F)cc2)CSC3)cc1	inactive	< 50%	2.1 U	inactive	5.92									
CC(C)(C)c1ccc(NC(=O)Nc2c3c(nn2-c2cccc(Cl)c2)CSC3)cc1	inactive	< 50%	2.6 U	inactive	5.89	2.73 µM	12.2 µM				12.2 µM	2.73 µM	6.8 µM	4.65 µM
CC(C)(C)c1ccc(C(=O)Nc2c3c(nn2-c2cccc(C(F)(F)F)c2)CSC3)cc1	inactive	< 50%	2.4 U	inactive	5.70									
Cc1ccc(-n2nc3c(c2NC(=O)Nc2ccc(C(C)(C)C)cc2)CSC3)cc1	inactive	< 50%	1.8 U	inactive	5.35									
Cc1ccc(-n2nc3c(c2NC(=O)c2ccc(C(C)(C)C)cc2)CSC3)cc1	inactive	< 50%	1.5 U	inactive	< 4.70									
Cc1ccc(-n2nc3c(c2NS(=O)(=O)c2ccc(C(C)(C)C)cc2)CSC3)cc1	inactive		2.2 U	inactive	< 4.70									
CC(C)(C)c1ccc(C(=O)Nc2c3c(nn2-c2ccc(C(F)(F)F)cc2)CSC3)cc1	inactive	< 50%	2 U	inactive	5.32									

More lines, main results first:

inhibition [1]	inhibition (Plasmodium falciparum [2])	Activity (Plasmodium falciparum [3])	inhibition [4]	pEC50 (Plasmodium falciparum [5])	KiH (Plasmodium falciparum [6])	KiL (Plasmodium falciparum [8])	KiH (Plasmodium falciparum [9])	pIC50 [10]	SMILES	Activity (Plasmodium falciparum [7])	KiL (Plasmodium falciparum [11])	KiH (Plasmodium falciparum [12])	KiL (Plasmodium falciparum [13])	KiH (Plasmodium falciparum [14])
inactive		1.2 U	inactive	5.34					CC(C)(C)c1ccc(C(=O)Nc2c3c(nn2-c2cccc(Cl)c2)COC3)cc1					
inactive		1.9 U	inactive	5.32					CC(C)(C)c1ccc(C(=O)Nc2c3c(nn2-c2cccc(Cl)c2)C[S+]([O-])C3)cc1 (centres undefined)					
inactive	< 50%	1.4 U	inactive	5.37	2.17 µM		11.9 µM		CC(C)(C)c1ccc(NC(=O)Nc2c3c(nn2-c2cccc(C(F)(F)F)c2)CSC3)cc1					
inactive		1.2 U	inactive	< 4.70					O=C(Nc1c2c(nn1-c1cccc(Cl)c1)COC2)c1ccc(-c2ccccc2)cc1					
inactive	> 90%	0.4 U	inactive	< 4.70				4.40	CC(C)(C)c1ccc(S(=O)(=O)Nc2c3c(nn2-c2cccc(Cl)c2)CSC3)cc1					
inactive		2.3 U	inactive	< 4.70					O=C(Nc1c2c(nn1-c1cccc(Cl)c1)COC2)C(F)(F)F					
inactive		1.7 U	inactive	5.60					CC(C)(C)c1ccc(NC(=O)Nc2c3c(nn2-c2cnccn2)COC3)cc1					
inactive		2.4 U	inactive	6.13					CC(C)(C)c1ccc(NC(=O)Nc2c3c(nn2-c2cccc(Cl)c2)COC3)cc1					
inactive	> 90%	0.06 U	inactive	< 4.70				4.68	CC(C)(C)c1ccc(S(=O)(=O)Nc2c3c(nn2-c2ccc(Cl)cc2)CSC3)cc1					
